Measurements published in ChEMBL document CHEMBL5108047 (J Med Chem, 2022).

Assays:
[1] = mouse, microsomes
Description: Metabolic stability in mouse liver microsomes assessed as clearance

DNA polymerase theta [2] = molecular target: T1, DNA polymerase theta (Homo sapiens, UniProt O75417); assay: Inhibition of human DNA polymerase theta pol domain (1819 to 2590 residues) expressed in Escherichia coli BL21 (DE3) cells preincubated for 15 mins followed by DNA and dNTP addition and measured after 120 mins by Picogreen dye fluorescence intensity analysis
[3] = Plasma protein binding in mouse assessed as unbound fraction by equilibrium dailysis; format: ADME, cell-free
[4] = AUC in CD-1 mouse at 20 mg/kg, po measured upto 24 hrs by reverse phase LCMS analysis; format: ADME, organism-based; design: time < 24 hrs, dose 20 mg/kg, route po; conditions: in vivo
[5] = fCaverage in CD-1 mouse; format: ADME
DNA polymerase theta [6] = molecular target: T1, DNA polymerase theta; assay: Inhibition of human DNA polymerase theta using DNA 16/19 as substrate at 1 nM of enzyme concentration
DNA polymerase theta [7] = molecular target: T1, DNA polymerase theta; assay: Inhibition of human DNA polymerase theta using DNA 16/19 as substrate at 5 nM of enzyme concentration
DNA polymerase theta [8] = molecular target: T1, DNA polymerase theta; assay: Inhibition of human DNA polymerase theta using 5'-CACTGACTGTATGATG as primer and DNA 16/19 as substrate by FRET assay
DNA polymerase theta [9] = molecular target: T1, DNA polymerase theta; assay: Inhibition of human DNA polymerase theta using DNA 16/19 as substrate at 2 nM of enzyme concentration
DNA polymerase theta [10] = molecular target: T1, DNA polymerase theta; assay: Inhibition of human DNA polymerase theta using DNA 16/19 as substrate at 0.5 nM of enzyme concentration

T1 sequence (O75417 whole entry, the tested form may be a part): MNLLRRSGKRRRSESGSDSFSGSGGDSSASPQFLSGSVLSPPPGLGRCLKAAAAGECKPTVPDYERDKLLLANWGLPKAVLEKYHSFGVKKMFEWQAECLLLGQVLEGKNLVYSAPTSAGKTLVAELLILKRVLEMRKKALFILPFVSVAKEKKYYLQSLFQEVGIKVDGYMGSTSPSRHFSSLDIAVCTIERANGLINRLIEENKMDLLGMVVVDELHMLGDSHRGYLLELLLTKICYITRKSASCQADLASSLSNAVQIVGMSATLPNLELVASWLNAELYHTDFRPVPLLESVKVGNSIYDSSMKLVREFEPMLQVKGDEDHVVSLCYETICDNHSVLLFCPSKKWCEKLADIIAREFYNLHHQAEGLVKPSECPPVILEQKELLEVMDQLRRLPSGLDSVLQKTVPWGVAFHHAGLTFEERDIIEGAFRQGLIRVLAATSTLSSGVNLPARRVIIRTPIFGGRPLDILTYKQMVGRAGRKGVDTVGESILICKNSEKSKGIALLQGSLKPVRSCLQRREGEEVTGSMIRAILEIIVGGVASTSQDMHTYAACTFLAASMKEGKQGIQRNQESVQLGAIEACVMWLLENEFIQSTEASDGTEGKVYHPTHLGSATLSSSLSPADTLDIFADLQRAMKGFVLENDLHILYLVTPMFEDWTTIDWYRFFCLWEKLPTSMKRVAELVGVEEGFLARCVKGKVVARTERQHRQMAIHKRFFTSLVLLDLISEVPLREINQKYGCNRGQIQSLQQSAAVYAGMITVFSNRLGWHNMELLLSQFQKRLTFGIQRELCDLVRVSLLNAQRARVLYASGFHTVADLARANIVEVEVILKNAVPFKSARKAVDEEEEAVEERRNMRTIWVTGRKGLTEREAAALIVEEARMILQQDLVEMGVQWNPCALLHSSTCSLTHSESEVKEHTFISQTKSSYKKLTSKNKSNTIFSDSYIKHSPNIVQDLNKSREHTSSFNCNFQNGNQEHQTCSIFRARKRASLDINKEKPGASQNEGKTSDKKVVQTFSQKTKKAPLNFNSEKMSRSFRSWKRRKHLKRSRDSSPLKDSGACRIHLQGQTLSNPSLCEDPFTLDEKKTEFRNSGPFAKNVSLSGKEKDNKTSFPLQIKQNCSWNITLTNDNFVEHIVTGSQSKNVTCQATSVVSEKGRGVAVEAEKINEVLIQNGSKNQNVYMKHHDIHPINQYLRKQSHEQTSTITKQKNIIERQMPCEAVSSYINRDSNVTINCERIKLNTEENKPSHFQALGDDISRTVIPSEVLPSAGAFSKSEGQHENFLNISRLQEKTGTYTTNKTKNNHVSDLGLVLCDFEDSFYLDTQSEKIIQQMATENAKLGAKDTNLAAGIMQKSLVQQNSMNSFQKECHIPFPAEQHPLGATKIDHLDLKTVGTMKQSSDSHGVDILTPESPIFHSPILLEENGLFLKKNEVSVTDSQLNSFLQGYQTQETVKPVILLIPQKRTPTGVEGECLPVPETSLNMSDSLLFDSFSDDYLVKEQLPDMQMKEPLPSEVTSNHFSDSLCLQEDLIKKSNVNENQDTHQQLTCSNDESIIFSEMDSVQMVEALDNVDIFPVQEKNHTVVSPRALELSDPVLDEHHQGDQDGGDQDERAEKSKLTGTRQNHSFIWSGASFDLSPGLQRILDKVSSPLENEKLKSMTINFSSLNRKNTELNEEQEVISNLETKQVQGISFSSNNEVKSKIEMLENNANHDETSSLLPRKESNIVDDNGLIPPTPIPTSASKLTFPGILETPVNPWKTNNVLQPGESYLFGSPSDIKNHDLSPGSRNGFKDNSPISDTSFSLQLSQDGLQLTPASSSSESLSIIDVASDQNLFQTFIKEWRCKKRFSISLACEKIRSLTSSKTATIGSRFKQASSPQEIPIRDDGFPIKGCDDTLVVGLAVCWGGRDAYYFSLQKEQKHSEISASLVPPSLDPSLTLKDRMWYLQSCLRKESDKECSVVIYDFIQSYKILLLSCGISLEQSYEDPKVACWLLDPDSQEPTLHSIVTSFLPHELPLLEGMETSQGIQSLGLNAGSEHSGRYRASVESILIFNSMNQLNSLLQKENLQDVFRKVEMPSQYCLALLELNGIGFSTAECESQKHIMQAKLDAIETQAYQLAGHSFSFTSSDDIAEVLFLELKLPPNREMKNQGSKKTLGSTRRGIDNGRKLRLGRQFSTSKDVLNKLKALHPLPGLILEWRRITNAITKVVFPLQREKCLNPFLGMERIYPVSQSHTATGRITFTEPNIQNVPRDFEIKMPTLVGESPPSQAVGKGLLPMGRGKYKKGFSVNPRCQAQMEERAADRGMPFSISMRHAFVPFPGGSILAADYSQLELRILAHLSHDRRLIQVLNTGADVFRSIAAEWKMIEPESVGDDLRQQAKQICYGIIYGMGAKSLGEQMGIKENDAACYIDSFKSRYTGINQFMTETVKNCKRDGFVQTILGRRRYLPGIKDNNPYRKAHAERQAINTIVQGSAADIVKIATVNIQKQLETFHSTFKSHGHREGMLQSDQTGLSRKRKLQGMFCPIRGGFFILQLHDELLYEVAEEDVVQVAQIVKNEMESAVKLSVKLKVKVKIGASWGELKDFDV

CLH [1] [µL/min/mg]	IC50 (DNA polymerase theta [2]) [nM]	Structure (SMILES)	further results
469	0.4	O=C(NCC#CCN(C(=O)Cc1ccc(C(F)(F)F)cc1C(F)(F)F)c1ccccc1)c1ccccn1	
> 832	2700	CN(C(=O)Cc1ccc(C(F)(F)F)cc1C(F)(F)F)c1ccccn1	
	4.2	Nc1cnc(C#CCN(C(=O)Cc2ncc(C(F)(F)F)cc2C(F)(F)F)c2ccc(F)cc2)cn1	Fu [3]: 0.018; AUC [4]: 108 µM·h; f(Cave) [5]: 81 nM
	9	Cn1cnc(C#CCN(C(=O)Cc2ncc(C(F)(F)F)cc2C(F)(F)F)c2ccc(F)cc2)c1	Fu [3]: 0.018; AUC [4]: 5.31 µM·h; f(Cave) [5]: 3 nM
	58	CN(C(=O)Cn1c(C(F)(F)F)cc(C(F)(F)F)cc1=O)c1ccccc1	
	0.72	O=C(Cc1ncc(C(F)(F)F)cc1C(F)(F)F)N(CC#Cc1ccc(C2CCNC2)cn1)c1ccc(F)cc1 (configuration not stated)	Fu [3]: 0.019; AUC [4]: 38 µM·h; f(Cave) [5]: 30 nM
> 832	0.82	CC(=O)NCC#CCN(C(=O)Cc1ccc(C(F)(F)F)cc1C(F)(F)F)c1ccccc1	
	9200	CN(C(=O)Cc1ccccc1C(F)(F)F)c1ccccc1	
115	42	N#CCN(C(=O)Cc1ccc(C(F)(F)F)cc1C(F)(F)F)c1ccccc1	
> 832	950	CC1Cc2nn(CC(=O)N(C)c3ccccc3)c(C(F)(F)F)c2C1 (configuration not stated)	
39	0.51	O=C(Cc1ccc(C(F)(F)F)cc1C(F)(F)F)N(CC#Cc1cccc(=O)[nH]1)c1ccccc1	
	121	CN(C(=O)Cc1ccc(Cl)cc1C(F)(F)F)c1ccccc1	
	0.91	CS(=O)(=O)Cn1cc(C#CCN(C(=O)Cc2ncc(C(F)(F)F)cc2C(F)(F)F)c2ccc(F)cc2)cn1	Fu [3]: 0.019; AUC [4]: 76.3 µM·h; f(Cave) [5]: 60 nM
473	10000	Cc1c2c(nn1CC(=O)N(C)c1ccccc1)CCC2	
> 555	710	CN(C(=O)Cn1nc2c(c1C(F)(F)F)CCC2)c1ccccc1	
216	3200	CN(C(=O)Cc1ccc(C(F)(F)F)cc1C(F)(F)F)c1cccnc1	
52	19	[2H]C([2H])([2H])N(C(=O)Cc1ccc(C(F)(F)F)cc1C(F)(F)F)c1ccc(F)cc1	
	0.75	O=C(Cc1ncc(C(F)(F)F)cc1C(F)(F)F)N(CC#Cc1cnn(C2CNC2)c1)c1ccc(F)cc1	Fu [3]: 0.051; AUC [4]: 14.1 µM·h; f(Cave) [5]: 29 nM
57	1.2	Cn1cncc1C#CCN(C(=O)Cc1ccc(C(F)(F)F)cc1C(F)(F)F)c1ccccc1	
597	14	C#CCN(C(=O)Cc1ccc(C(F)(F)F)cc1C(F)(F)F)c1ccccc1	
> 555	240	CC1CCc2nn(CC(=O)N(C)c3ccccc3)c(C(F)(F)F)c21 (configuration not stated)	
	40	CN(C(=O)Cc1ccc(C2CC2)cc1C(F)(F)F)c1ccccc1	
64	2.9	O=C(Cc1ccc(C(F)(F)F)cc1C(F)(F)F)N(CC#Cc1ccccn1)c1ccccc1	

CLH [1] [µL/min/mg]	IC50 (DNA polymerase theta [2]) [nM]	Structure (SMILES)	further results
614	0.068	Cc1nnc(C(=O)NCC#CCN(C(=O)Cc2ccc(C(F)(F)F)cc2C(F)(F)F)c2ccccc2)o1	
	1.6	Nc1ncc(C#CCN(C(=O)Cc2ncc(C(F)(F)F)cc2C(F)(F)F)c2ccc(F)cc2)cn1	Fu [3]: 0.015; AUC [4]: 24.7 µM·h; f(Cave) [5]: 81 nM
> 555	560	CN(C(=O)Cn1nc2c(c1C(F)(F)F)CC(C)(C)C2)c1ccccc1	
105	3.9	O=C(Cc1ccc(C(F)(F)F)cc1C(F)(F)F)N(CC#Cc1ncccn1)c1ccccc1	
	4.9	COc1ccc(C#CCN(C(=O)Cc2ncc(C(F)(F)F)cc2C(F)(F)F)c2ccc(F)cc2)nn1	AUC [4]: 27.7 µM·h; f(Cave) [5]: 6 nM
18	> 100000	CN(C(=O)Cn1nc2c(c1C(F)(F)F)C(=O)NCC2)c1ccccc1	
	65	CN(C(=O)Cc1ncc(C(F)(F)F)cc1C(F)(F)F)c1ccccc1	
56	2200	CN(C(=O)Cc1ccc(C(F)(F)F)cc1C(F)(F)F)c1ccncc1	
> 555		CN(C(=O)Cn1nc2c(c1C(F)(F)F)CCCC2)c1ccccc1	
	11000	CN(C(=O)Cn1nc(C(F)(F)F)c2c1CCCC2)c1ccccc1	
23	43000	CN(C(=O)Cn1nc2c(c1C(F)(F)F)CS(=O)(=O)C2)c1ccccc1	
492	0.2	O=C(NCC#CCN(C(=O)Cc1ccc(C(F)(F)F)cc1C(F)(F)F)c1ccccc1)c1cccnc1	
110	2.5	O=C(Cc1ccc(C(F)(F)F)cc1C(F)(F)F)N(CC#Cc1cccnc1)c1ccccc1	
	1.7	Cn1nc(N)cc1C#CCN(C(=O)Cc1ncc(C(F)(F)F)cc1C(F)(F)F)c1ccc(F)cc1	Fu [3]: 0.044; AUC [4]: 35.6 µM·h; f(Cave) [5]: 65 nM
	2.1	COc1ncc(C#CCN(C(=O)Cc2ncc(C(F)(F)F)cc2C(F)(F)F)c2ccc(F)cc2)cn1	Fu [3]: 0.013; AUC [4]: 7 µM·h; f(Cave) [5]: 3 nM
> 832	2300	CN(C(=O)Cn1nc2c(c1C(F)(F)F)CCC2(C)C)c1ccccc1	
46	> 100000	CN(C(=O)Cn1nc2c(c1C(F)(F)F)C(O)CC2)c1ccccc1 (configuration not stated)	
	0.99	CC(C(N)=O)n1cc(C#CCN(C(=O)Cc2ncc(C(F)(F)F)cc2C(F)(F)F)c2ccc(F)cc2)cn1 (configuration not stated)	Fu [3]: 0.044; AUC [4]: 27 µM·h; f(Cave) [5]: 49 nM
16	> 100000	CN(C(=O)Cn1nc2c(c1C(F)(F)F)CNCC2)c1ccccc1	
> 555	17	CN(C(=S)Cn1nc2c(c1C(F)(F)F)CCC2)c1ccccc1	IC50 (DNA polymerase theta [6]): 7.49 nM; IC50 (DNA polymerase theta [7]): 11.1 nM; IC50 (DNA polymerase theta [8]): 10 nM; IC50 (DNA polymerase theta [9]): 8.71 nM; IC50 (DNA polymerase theta [10]): 8.48 nM
125	17	CN(C(=O)Cc1ccc(C(F)(F)F)cc1C(F)(F)F)c1ccc(F)cc1	
> 555	520	CN(C(=O)Cn1nc2c(c1C(F)(F)F)C(C)(C)CC2)c1ccccc1	
